Series [1] concerns Hepatitis B virus. Put plainly: Antiviral activity against HBV infected in human HepAD38 cells assessed as inhibition of viral DNA at 10 uM incubated for 4 days by SYBR green dye based RT-PCR analysis relative to control. It counts as functional. Particulars: HePAD38, 96 h, time 4 day.
The subject of series [2] is Hepatitis B virus. In words: Antiviral activity against HBV infected in human HepAD38 cells assessed as inhibition of viral DNA incubated for 4 days by SYBR green dye based RT-PCR analysis. The format is functional, organism-based. Particulars: HePAD38, 96 h.
The nature of series [3]: Cytotoxicity against human HepG2 cells assessed as cell viability incubated for 72 hrs by MTT assay. It counts as cell-based.
Series [4] in a line: Cytotoxicity against human HePAD38 cells assessed as cell viability incubated for 72 hrs by MTT assay. It counts as cell-based. On the technique in general: Tetrazolium dyes change colour on reduction, which living cells bring about.

The source of these data is ChEMBL document CHEMBL4725284, “Junceellolide B, a novel inhibitor of Hepatitis B virus” (Bioorg Med Chem, 2020).

Each structure is given as a SMILES string.

By inhibition is commonly meant the change of the read-out against control, counted positive when it falls. In general, EC50 refers to the concentration that produces a half-maximal response. Usually CC50 stands for the concentration at which the toxic effect on the cells reaches its halfway point. Turning to `C=C1/C=C/[C@H](OC(=O)CC)[C@@]2(C)[C@@H](OC(C)=O)CC[C@]3(CO3)[C@@H]2[C@H](OC(C)=O)[C@]2(O)[C@@H](C)C(=O)O[C@H]2[C@H]1Cl`, the inhibition at 10 µM in the series on Hepatitis B virus [1] worked out at 75%. Moreover, the EC50 with Hepatitis B virus [2] worked out at 0.81 µM. Also, the CC50 at 72 h in series [3] and in series [4] was more than 100 µM throughout.

On to `C=C1/C=C\[C@H](OC(=O)COC(=O)CC(C)C)[C@@]2(C)[C@@H](OC(C)=O)CC[C@]3(CO3)[C@@H]2[C@H](OC(C)=O)[C@]2(O)[C@@H](C)C(=O)O[C@H]2[C@H]1Cl` [FRAJUNOLIDE G], for which the inhibition at 10 µM in the series with Hepatitis B virus [1] worked out at 0%. The CC50 at 72 h in series [3] and in series [4] was more than 100 µM each time.

For `CC(=O)O[C@H]1CC[C@]2(CO2)[C@@H]2[C@H](OC(C)=O)[C@@]3(O)[C@H](/C=C(/C)[C@H](OC(C)=O)C[C@H](OC(C)=O)[C@@]12C)OC(=O)[C@@H]3C` [11ALPHA,20ALPHA-EPOXYJUNCEELLOLIDE], in the series on Hepatitis B virus [1], the inhibition at 10 µM turned out to be 3%. Moreover, the 50% cytotoxic concentration (CC50) at 72 h in series [3] and in series [4] was more than 100 µM in each case.

Consider `C=C1CC[C@H](OC(C)=O)[C@]2(C)[C@@H](OC(C)=O)/C=C/C(COC(C)=O)=C\[C@@H]3OC(=O)[C@H](C)[C@@]3(O)[C@@H](OC(C)=O)[C@@H]12`, for which, in the series with Hepatitis B virus [1], the inhibition at 10 µM was found to be 0%. The CC50 at 72 h in series [3] and in series [4] was more than 100 µM in each case.

Turning to `CC(=O)OCC1=C/[C@@H]2OC(=O)[C@H](C)[C@@]2(O)[C@@H](OC(C)=O)[C@H]2[C@]3(CC[C@H](OC(C)=O)[C@]2(C)[C@@H](OC(=O)COC(=O)CC(C)C)/C=C\1)CO3`, the inhibition at 10 µM in the series on Hepatitis B virus [1] amounted to 0%. In addition, the CC50 at 72 h in series [3] and in series [4] was more than 100 µM each time.

With `C=C1CC[C@H](OC(C)=O)[C@]2(C)[C@@H](OC(C)=O)C[C@@]3(O)O[C@@]4([C@H](C=C3CO)OC(=O)[C@@H]4C)[C@@H](OC(C)=O)[C@@H]12`, the inhibition at 10 µM in the series on Hepatitis B virus [1] was 0%. Also, the 50% cytotoxic concentration (CC50) at 72 h in series [3] and in series [4] was more than 100 µM in each case.

Regarding `C=C1CC[C@H](OC(C)=O)[C@@]2(C)[C@H]1[C@H](OC(C)=O)[C@@]13O[C@@H](C(=C)[C@H](Cl)[C@@H]1OC(=O)[C@@H]3C)[C@@H](OC(C)=O)[C@@H]2OC(C)=O`, in the series with Hepatitis B virus [1], the inhibition at 10 µM was 27%. Also, the cytotoxic concentration (CC50) at 72 h in series [3] and in series [4] was more than 100 µM throughout.

With `C=C1[C@H](OC(C)=O)C[C@H](OC(=O)CC)[C@@]2(C)[C@@H](OC(C)=O)CC[C@]3(CO3)[C@@H]2[C@H](OC(C)=O)[C@]2(O)[C@@H](C)C(=O)O[C@H]2[C@H]1Cl`, in the series on Hepatitis B virus [1], the inhibition at 10 µM stood at 0%. The CC50 at 72 h in series [3] and in series [4] was more than 100 µM each time.

In the case of `C=C1/C=C/[C@H](OC(C)=O)[C@@]2(C)[C@@H](OC(C)=O)CC[C@]3(CO3)[C@@H]2[C@H](OC(C)=O)[C@]2(O)[C@@H](C)C(=O)O[C@H]2[C@H]1Cl` [JUNCEELLOLIDE C], the inhibition at 10 µM in the series on Hepatitis B virus [1] came out at 63%. Further, in the series on Hepatitis B virus [2], the half-maximal effective concentration (EC50) is 5.19 µM. For the same compound, the CC50 at 72 h in series [3] and in series [4] was more than 100 µM in each case.

For `C=C1CC[C@H](OC(C)=O)[C@]2(C)[C@@H](OC(C)=O)C[C@@]3(O)O[C@]4([C@@H](C)C(=O)O[C@H]4[C@@H](Cl)C3=C)[C@@H](OC(C)=O)[C@@H]12`, the inhibition at 10 µM in the series with Hepatitis B virus [1] amounted to 40%. The CC50 at 72 h in series [3] and in series [4] was more than 100 µM in each case.
